Consider three molecules from US5041436A, “1-arylsulphonyl-2-piperidinone derivatives, process and intermediates for the preparation thereof, their application as antispasmodics and compositions containing them” (Roussel Uclaf, priority 1989, dated 1991).

pIC50: −log10 of the molar value. Read-outs that look alike come from different tables or passages of the source.

The target in assay [1] is Muscarinic receptor 2. Put plainly: Binding to muscarinic receptor 2 ([^3 H]quinuclidinyl benzylate), rat brain. Conditions: 0.3 nM [^3 H]quinuclidinyl benzylate, 60 minutes at 25° C., pH 7.5, rat brain; read-out: Affinity for M2 muscarinic receptors, [^3 H]quinuclidinyl benzylate, IC50. How it is done:
(§1) 1) Binding to different brain receptors.
The preparation is performed from brains of male rats weighing 150 to 200 g (Iffa Credo).
The brains are ground (Teflon-glass) in 0.32M sucrose solution. The homogenate is centrifuged for 10 minutes at 1,000 g (0°-4° C.)
The supernatant obtained is collected and centrifuged at 30,000 g for 15 minutes (0°-4° C.).
The regulus is resuspended in 50 mM Tris buffer pH 7.5 and the new homogenate is centrifuged again at 30,000 g for 15 minutes (0°-4° C.).
After removal of the supernatant, the regulus may be used immediately or stored for up to 1 month at -30° C.
For an experiment, the regulus are first thawed, if necessary, at room temperature and resuspended using a Dounce in 50 mM Tris buffer pH 7.5. 2 ml aliquots are incubated for 60 minutes at 25° C. in the presence of 0.3 nM [^3 H]quinuclidinyl benzylate, either alone, or with the test product, or with 10^-5 M benzatropine to determine the non-specifically bound radioactivity.
At the end of the incubation period, the incubate tubes are cooled to 4° C. and filtered rapidly on Whatman GF/C filters. The filters are rinsed with 3×5 ml of […] Tris buffer pH 7.5 and the measurements are then performed by liquid scintillation (Henry I. Yamamura, Solomon H. Snyder, Proc. Nat. Acad. Sc. (1974) 71, No. 5, 1725-1729).
The results are expressed as an IC50 (concentration needed to inhibit by 50% the specifically bound radioactivity).

The subject of assay [2] is isolated guinea pig ileum, contractions induced by acetyl choline. Description: Antagonist action on contractions induced by acetyl choline, isolated guinea pig ileum. Particulars: acetyl choline 1×10^-6 M; contact time one minute; 37° C.; read-out: Antagonist to different agents (IC50), ACh. Here is the method:
The interaction of the compounds with different receptors was assessed on isolated guinea pig ileum according to the following method.
Guinea pig ileum segments measuring 2.5-3 cm were washed and immediately suspended in a bath containing 10 ml of Tyrode's solution at 37° C. aerated with a mixture of oxygen (95%) and carbon dioxide (5%). After a stabilization period of at least 30 minutes, the contractions were recorded, maintaining the preparation under constant tension of 1 g using a gauge connected to a polygraph. The agonist action was assessed by leaving the compound in contact with the isolated tissue for a period necessary for expressing the maximal contraction; the preparation was then washed with Tyrode's solution. The next dose was added to the bath only after the preparation had returned to its base line. As a reference product, arecoline was employed. The antagonist action was assessed on contractions induced by acetyl choline (1×10^-6 M), histamine (1×10^-5 M) and barium chloride (2×10^-4 M). Atropine, diphenhydramine and papaverine were emplohyed as reference products. The contact time before adding the agonist was one minute.
For each compound, the dose-response curves are obtained with 4 to 6 different concentrations and 3 to 5 independent tests. The agonist activity is expressed by pD2 (negative logarithm of the dose which produces 50% of maximum effect). The antagonist activity is expressed by IC50 (concentration inhibiting 50% of the maximal response).

The target in assay [3] is benzodiazepines receptors. Put plainly: Binding to other brain receptors: benzodiazepines. Conditions: negligible affinity.
Excerpt: as §1

For assay [4], the target named is adrenoreceptors alpha1. Description: Binding to other brain receptors: adrenoreceptor alpha1. Conditions: negligible affinity.
Excerpt: as §1

In assay [5] the test system is cholinomimetic effects induced by carbachol. Put plainly: In vivo anticholinergic action: inhibition of cholinomimetic effects induced by carbachol in mice. Set-up: species or system CD1 male mice. Conditions: Mus musculus, ip, mice, i.p. 30 minutes before carbachol 1 mg/kg s.c.; for ED (1 degree C): rectal temperature, read-out: Body temperature: dose increasing by 1° C. the hypothermic effect induced by the cholinergic agent. How it is done: The anticholinergic activity of the compounds was determined by assessing the capacity to inhibit the cholinomimetic effects induced by carbachol. Atropine sulphate was employed as a reference product.
CD1 male mice weighing 25 to 30 g were used. They were distributed in groups of 6 animals and treated intraperitoneally with scalar doses of the products or 0.25% Methocel for the controls. 12 animals were used for each dose. 30 minutes after administration of the compounds, the mice were injected subcutaneously with 1 mg/kg of carbachol dissolved in physiological saline.
Each animal was examined 30 minutes after the injection of carbachol to assess the presence of diarrhoea, salivation and eye watering; in addition, the body temperature was measured by means of a thermocouple inserted 1.5 cm into the rectum.
For each compound, we have determined and recorded in the following table the dose capable of inhibiting the appearance of the carbachol-induced cholinometric symptoms in 50% of the animals, and of increasing by 1° C. the hypothermic effect induced by the cholinergic agent.

Where [6] appears, read: read-out: Dose inhibiting carbachol-induced diarrhoea in 50% of the animals.
Setting [7] is: read-out: Dose inhibiting carbachol-induced eye watering in 50% of the animals.
Setting [8] is: read-out: Dose inhibiting carbachol-induced salivation in 50% of the animals.

Regarding `O=C1CCCCN1S(=O)(=O)c1ccc(N2CCCCC2)cc1` [Example 4, 1-[4-(1-Piperidinyl)benzenesulphonyl] -2-piperidinone], the pIC50 in assay [1] was 5.65; in assay [2], 5.82; in assay [3], 5.00 to 5.30; in assay [4], 5.00 to 5.30. Also, the ED50 in assay [5] (setting [6]) is 6 mg/kg; in assay [5] (setting [7]), over 50 mg/kg; in assay [5] (setting [8]), over 50 mg/kg. Also, in assay [5], the ED (1 degree C) is over 50 mg/kg.
For the molecule `O=C1CCCCN1S(=O)(=O)c1ccc(N2CCCCCC2)cc1` [Example 5, 1-[4-(1-Hexahydroazepinyl)benzenesulphonyl]-2-piperidinone], the pIC50 in assay [1] is 6.18; in assay [2], 6.57; in assay [3] it was 5.00 to 5.30; in assay [4], 5.00 to 5.30. Besides, the ED50 in assay [5] (setting [6]) is 2 mg/kg; in assay [5] (setting [7]) it was over 50 mg/kg. Further, in assay [5], the ED (1 degree C) was found to be 50 mg/kg.
For `CCN(CC)c1ccc(S(=O)(=O)N2CCCCC2=O)cc1` [Example 2, 1-[4-(Diethylamino)benzenesulphonyl]-2-piperidinone], the pIC50 is 5.34 in assay [1], 6.03 in assay [2], 5.00 to 5.30 in assay [3] and 5.00 to 5.30 in assay [4]. The ED50 is 5 mg/kg in assay [5] (setting [6]), over 50 mg/kg in assay [5] (setting [7]) and over 50 mg/kg in assay [5] (setting [8]). Moreover, the ED (1 degree C) in assay [5] is over 50 mg/kg.
